According to the NIST ThermoML archive (doi:10.1021/je0501991):
Numbers after ± are expanded uncertainties.

Experiments:
[1] = refractive index (Na D-line) (dimensionless); xn = mol fraction of the nth substance listed; conditions: 308.15 K, 101.33 kPa, Liquid, Standard Abbe refractometry
[2] = molar heat capacity at constant pressure; xn = mol fraction of the nth substance listed; conditions: 101 kPa, Liquid
[3] = excess molar enthalpy (molar enthalpy of mixing); xn = mol fraction of the nth substance listed; conditions: 308.15 K, 101.33 kPa, Liquid
[4] = xn = mol fraction of the nth substance listed; conditions: 308.15 K, 101.33 kPa, Liquid

OCCCc1ccccc1 [3-phenyl-1-propanol] + C[S+](C)[O-]
Conditions | excess molar enthalpy [kJ/mol] | mass density [kg/m3] | refractive index | viscosity [mPa·s]
[1], x2 = 0.0936 | – | – | 1.5188 ± 0.0007 | –
[1], x2 = 0.1499 | – | – | 1.5172 ± 0.0007 | –
[1], x2 = 0.277 | – | – | 1.5132 ± 0.0007 | –
[1], x2 = 0.3915 | – | – | 1.509 ± 0.0007 | –
[1], x2 = 0.4564 | – | – | 1.5063 ± 0.0007 | –
[1], x2 = 0.578 | – | – | 1.5008 ± 0.0007 | –
[1], x2 = 0.6526 | – | – | 1.4969 ± 0.0007 | –
[1], x2 = 0.7233 | – | – | 1.4931 ± 0.0007 | –
[1], x2 = 0.7879 | – | – | 1.489 ± 0.0007 | –
[1], x2 = 0.8512 | – | – | 1.4847 ± 0.0007 | –
[1], x2 = 0.9027 | – | – | 1.4811 ± 0.0007 | –
[1], x2 = 0.9543 | – | – | 1.4771 ± 0.0007 | –
[3], x2 = 0.0737 | -0.227 ± 0.005 | – | – | –
[3], x2 = 0.1373 | -0.344 ± 0.007 | – | – | –
[3], x2 = 0.1927 | -0.398 ± 0.008 | – | – | –
[3], x2 = 0.2414 | -0.429 ± 0.009 | – | – | –
[3], x2 = 0.3232 | -0.422 ± 0.009 | – | – | –
[3], x2 = 0.389 | -0.396 ± 0.008 | – | – | –
[3], x2 = 0.4885 | -0.333 ± 0.007 | – | – | –
[3], x2 = 0.56 | -0.27 ± 0.006 | – | – | –
[3], x2 = 0.6563 | -0.177 ± 0.004 | – | – | –
[3], x2 = 0.7413 | -0.09 ± 0.003 | – | – | –
[3], x2 = 0.7925 | -0.048 ± 0.002 | – | – | –
[3], x2 = 0.8514 | -0.013 ± 0.002 | – | – | –
[3], x2 = 0.8843 | 0.007 ± 0.002 | – | – | –
[3], x2 = 0.9162 | 0.014 ± 0.002 | – | – | –
[3], x2 = 0.9386 | 0.018 ± 0.002 | – | – | –
[3], x2 = 0.9582 | 0.017 ± 0.002 | – | – | –
[3], x2 = 0.9787 | 0.011 ± 0.002 | – | – | –
[4], x2 = 0.0936 | – | 996.28 ± 0.49 | – | 8.592 ± 0.14
[4], x2 = 0.1499 | – | 999.45 ± 0.47 | – | 7.792 ± 0.12
[4], x2 = 0.277 | – | 1007.07 ± 0.42 | – | 6.19 ± 0.097
[4], x2 = 0.3915 | – | 1014.73 ± 0.39 | – | 5.032 ± 0.079
[4], x2 = 0.4564 | – | 1019.55 ± 0.37 | – | 4.488 ± 0.07
[4], x2 = 0.578 | – | 1029.68 ± 0.34 | – | 3.629 ± 0.056
[4], x2 = 0.6526 | – | 1036.85 ± 0.32 | – | 3.18 ± 0.048
[4], x2 = 0.7233 | – | 1044.45 ± 0.32 | – | 2.801 ± 0.042
[4], x2 = 0.7879 | – | 1052.21 ± 0.31 | – | 2.487 ± 0.038
[4], x2 = 0.8512 | – | 1060.69 ± 0.31 | – | 2.208 ± 0.033
[4], x2 = 0.9027 | – | 1068.4 ± 0.32 | – | 1.993 ± 0.03
[4], x2 = 0.9543 | – | 1076.93 ± 0.33 | – | 1.801 ± 0.027

molar heat capacity at constant pressure [J/K/mol], [2]
Conditions | 298.15 K | 308.15 K | 318.15 K
x2 = 0 | 276.3 ± 22 | 284.1 ± 23 | 291.8 ± 23
x2 = 0.0905 | 259.9 ± 21 | 265.7 ± 21 | 273 ± 22
x2 = 0.1204 | 250.3 ± 20 | 256 ± 20 | 262.8 ± 21
x2 = 0.1712 | 243.4 ± 20 | 249.7 ± 20 | 256.2 ± 20
x2 = 0.3375 | 211.1 ± 17 | 215.5 ± 17 | 220 ± 18
x2 = 0.452 | 196.9 ± 16 | 200 ± 16 | 203.5 ± 16
x2 = 0.5571 | 185.1 ± 15 | 187.5 ± 15 | 190.7 ± 15
x2 = 0.6101 | 185.8 ± 15 | 188.7 ± 15 | 191.4 ± 15
x2 = 0.6567 | 177 ± 14 | 178.3 ± 14 | 180.9 ± 14
x2 = 0.7396 | 165.6 ± 13 | 167.2 ± 13 | 170 ± 14
x2 = 0.806 | 162.2 ± 13 | 163.9 ± 13 | 165.4 ± 13
x2 = 0.8718 | 159.2 ± 13 | 160.5 ± 13 | 161.9 ± 13
x2 = 0.9487 | 148.5 ± 12 | 149.3 ± 12 | 151.3 ± 12
